From patent US11690832B2, “Treatment of autoimmune diseases with combinations of RXR agonists and thyroid hormones” (Io Therapeutics, Inc., priority 2016, dated 2023)
“Also recorded” adds a separate entry of the source.

Legend:
LXRβ/RXR = assay: Permissive heterodimer transactivation assay, 3x(PLTP/LXRE)-tk-Luc in CV-1 cells; type: cell-based; conditions: 20 hr; relative to T0901317
Description: (§1) For PPARγ: CV-1 cells were transfected with 3×(rAOX/DR1)-tk-Luc reporter gene and an expression vector for PPARγ. For FXR:CV-1 cells were transfected with 3×(IBABP/IRI)-tk-Luc reporter gene and vectors for FXR and RXRα. For LXR:CV-1 cells were transfected with 3×(PLTP/LXRE)-tk-Luc reporter gene with vectors for LXRα or LXRβ. For Nurr1: COS7 cells were transfected with 3×NBRE-tk-luc reporter gene and full length Nurr-1 with or without full-length RXRα plasmid. […] Luciferase data were normalized to co-transfected β-gal activity. Luciferase activity was expressed as percent of maximal activity obtained using specific agonists. Rosiglitazone (PPARγ), GW4064 (FXR), T0901317 (LXR).

LXRα/RXR = assay: as above; type: cell-based; conditions: 20 hr; relative to T0901317
Description: as §1

FXR/RXR = biological target: T1, FXR/RXR (Homo sapiens, UniProt P19793); assay: Permissive heterodimer transactivation assay, 3x(IBABP/IRI)-tk-Luc in CV-1 cells; type: cell-based; conditions: 20 hr; relative to GW4064
T1 construct: expressed in transfected cells; host or cells: CV-1
T1 sequence (Q96RI1 whole entry partner): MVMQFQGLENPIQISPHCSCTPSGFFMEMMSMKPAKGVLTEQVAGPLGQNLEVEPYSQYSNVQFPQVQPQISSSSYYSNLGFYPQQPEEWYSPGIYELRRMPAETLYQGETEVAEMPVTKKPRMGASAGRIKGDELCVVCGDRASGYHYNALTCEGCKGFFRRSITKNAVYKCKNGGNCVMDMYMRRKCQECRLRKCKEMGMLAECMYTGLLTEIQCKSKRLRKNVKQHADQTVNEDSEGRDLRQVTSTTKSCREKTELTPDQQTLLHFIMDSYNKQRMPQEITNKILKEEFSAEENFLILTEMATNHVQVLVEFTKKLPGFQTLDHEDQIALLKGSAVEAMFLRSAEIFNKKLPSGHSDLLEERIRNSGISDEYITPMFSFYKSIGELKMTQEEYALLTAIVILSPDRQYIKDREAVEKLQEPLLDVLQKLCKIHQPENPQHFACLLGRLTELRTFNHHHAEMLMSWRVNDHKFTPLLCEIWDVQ
T1 sequence (P19793 whole entry): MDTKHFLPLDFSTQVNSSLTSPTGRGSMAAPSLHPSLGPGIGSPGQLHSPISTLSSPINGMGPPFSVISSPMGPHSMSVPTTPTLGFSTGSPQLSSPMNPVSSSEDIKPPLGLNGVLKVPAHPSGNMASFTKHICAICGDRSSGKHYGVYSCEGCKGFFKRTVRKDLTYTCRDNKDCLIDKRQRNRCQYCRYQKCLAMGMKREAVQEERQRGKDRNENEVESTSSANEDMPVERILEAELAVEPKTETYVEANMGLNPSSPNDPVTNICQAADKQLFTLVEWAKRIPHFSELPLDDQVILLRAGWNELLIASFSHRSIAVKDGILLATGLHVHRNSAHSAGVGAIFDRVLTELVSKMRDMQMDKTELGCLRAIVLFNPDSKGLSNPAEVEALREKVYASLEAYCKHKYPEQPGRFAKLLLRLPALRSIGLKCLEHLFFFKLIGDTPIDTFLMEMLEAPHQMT
Description: as §1

[1] = tested on: oligodendrocyte precursor cells (OPCs); assay: Oligodendrocyte precursor cell differentiation (PLP-EGFP, Cellomics); type: cell-based, mouse; conditions: compared to negative control (DMSO)
Description: OPCs were generated from a neurosphere culture of E14.5 PLP-EGFP (on C57BL/6J background) mouse brains. […] The EGFP expressing cells were quantified with Cellomics Neuronal Profiling Algorithm.
The EGFP expressing cells in controls and all compounds were quantified with Cellomics Neuronal Profiling Algorithm.

RXRγ = biological target: T2, RXRγ (Homo sapiens, UniProt P48443); assay: RXR homodimer transactivation assay (rCRBPII/RXRE-tk-Luc reporter) in CV-1 cells; type: cell-based
T2 construct: an expression construct including a full length RXRα, RXRβ, or RXRγ; expressed in transfected cells; host or cells: CV-1
T2 sequence (P48443 1-463): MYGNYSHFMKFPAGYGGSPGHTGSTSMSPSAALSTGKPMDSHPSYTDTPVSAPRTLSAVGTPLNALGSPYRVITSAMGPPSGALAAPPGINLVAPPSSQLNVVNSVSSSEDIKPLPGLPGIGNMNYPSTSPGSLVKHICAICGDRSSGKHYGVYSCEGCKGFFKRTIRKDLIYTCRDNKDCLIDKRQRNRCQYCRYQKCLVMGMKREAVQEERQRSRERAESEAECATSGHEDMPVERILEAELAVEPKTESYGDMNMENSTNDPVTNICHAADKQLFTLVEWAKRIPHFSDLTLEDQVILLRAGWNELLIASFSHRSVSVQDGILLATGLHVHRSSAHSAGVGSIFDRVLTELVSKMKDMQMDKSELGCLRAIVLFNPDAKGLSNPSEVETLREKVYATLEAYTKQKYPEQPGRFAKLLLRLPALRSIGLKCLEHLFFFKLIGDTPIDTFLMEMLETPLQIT
Procedure: To determine whether a RXR agonist can mediate its effects via RXRα receptor homodimers, RXRβ receptor homodimers, RXRγ receptor homodimers, or any combination thereof, or the corresponding RAR/RXR heterodimers, receptor-mediated transactivation assays were performed. For transactivation assays assessing RXR homodimer signaling, CV-1 cells were transfected with 1) an expression construct including a full length RXRα, RXRβ, or RXRγ; and 2) a rCRBPII/RXRE-tk-Luc reporter construct that included RXR homodimer-specific RXRE/DR1 responsive element linked to a luciferase gene. For transactivation assays assessing RAR/RXR heterodimer signaling, CV-1 cells were transfected with 1) an expression construct comprising a fusion protein including an estrogen receptor (ER) DNA binding domain linked to the ligand binding domain of RARα, RARβ, or RARγ and 2) a ERE-tk-Luc reporter construct that included an estrogen receptor responsive element linked to a luciferase gene. The ER-RAR fusion proteins provided an accurate readout of only the transfected ER-RAR. […] Data are mean values ±SE from five independent experiments.

RARα = RARα (Homo sapiens, UniProt P10276); conditions: at ≥1 μM
Sequence of RARα (P10276 183-417 limits assumed, species assumed): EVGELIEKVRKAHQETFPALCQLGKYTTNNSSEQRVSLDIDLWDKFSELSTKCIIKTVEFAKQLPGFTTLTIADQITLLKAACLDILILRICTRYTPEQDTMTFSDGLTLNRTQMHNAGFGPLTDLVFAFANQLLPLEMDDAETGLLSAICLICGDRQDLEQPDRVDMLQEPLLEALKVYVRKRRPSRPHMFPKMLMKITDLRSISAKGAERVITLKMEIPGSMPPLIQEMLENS
Procedure: To determine whether a RXR agonist can mediate its effects via RXRα receptor homodimers, RXRβ receptor homodimers, RXRγ receptor homodimers, or any combination thereof, or the corresponding RAR/RXR heterodimers, receptor-mediated transactivation assays were performed. For transactivation assays assessing RXR homodimer signaling, CV-1 cells were transfected with 1) an expression construct including a full length RXRα, RXRβ, or RXRγ; and 2) a rCRBPII/RXRE-tk-Luc reporter construct that included RXR homodimer-specific RXRE/DR1 responsive element linked to a luciferase gene. For transactivation assays assessing RAR/RXR heterodimer signaling, CV-1 cells were transfected with 1) an expression construct comprising a fusion protein including an estrogen receptor (ER) DNA binding domain linked to the ligand binding domain of RARα, RARβ, or RARγ and 2) a ERE-tk-Luc reporter construct that included an estrogen receptor responsive element linked to a luciferase gene. […] Data are mean values ±SE from five independent experiments.

[2] = tested on: Naive CD4+ CD25− FoxP3− cells; assay: T cell differentiation under Th17 cell differentiation conditions (Foxp3, IL-17A); type: cell-based, mouse; conditions: 0, 1, 10, 100 nM, with increasing concentration
Procedure: To determine whether a RXR agonist can regulate T cell differentiation, the ability of an RXR agonist to promote Treg cell differentiation and inhibit Th17 cell differentiation under Th17 cell differentiation conditions was assessed by monitoring Foxp3 and IL-17A expression. Naive CD4^+ CD25^− FoxP3^− cells were purified from a Foxp3-GFP mouse using flow cytometry by sorting and isolating based upon a GFP^− phenotype.

[3] = tested on: cuprizone plus rapamycin (CR) demyelination in C57BL/6J mice
Description: Animals (8 week-old male C57BL/6J mice) were subjected to cuprizone diet plus rapamycin injections (CR) for 6 weeks to induce demyelination. […] All animals were sacrificed after 6 weeks of CR to evaluate axonal integrity and microglial/macrophage activity in the white matter (corpus callosum, CC).
A total of 50 animals were included in the study, where 43 animals received CR demyelination for 6 weeks. During demyelination, a subset (n=7) of animals were kept on normal diet to serve as naïve age-matched controls.

[4] = tested on: cuprizone/rapamycin demyelination in C57BL/6J mice; assay: 12-week cuprizone/rapamycin demyelination model, 6 weeks of treatment (remyelination); type: in vivo, mouse; conditions: 10 mg/kg PO daily for 6 weeks after 12 weeks CR
Description: All animals were sacrificed after 12 weeks of CR or after further 6 weeks of treatment to evaluate myelin in white matter (corpus callosum) and gray matter (hippocampus and cortex). In addition, the size of myelinated axons was quantified and the large myelinated axons were further assessed by 3D-electron microscopy (3D-EM). A total of 40 animals were included in the study, where all 40 animals received CR demyelination for 12 weeks. After demyelination, a subset (n=10) of animals are sacrificed to serve as controls to assess baseline demyelination. […] Floating brain sections are immunostained with myelin prolipid protein (PLP) to visualize and quantify myelin in gray matter, hippocampus (FIG. 16A) and cortex (FIG. 16B).

EAE in B6 mice = assay: EAE dose titration experiment with spleen and CNS flow cytometry; type: in vivo, mouse; conditions: 200 μg/day vs vehicle control
Procedure: A dose titration experiment was also conducted in EAE mice. EAE was induced in 28 B6 mice with MOG/CFA and PT as above. Mice were scored on day 7 as indicated above and divided into groups by score so means are as equal as possible.
At the completion of the experiment, the vehicle control and 200 μg/day groups were euthanized and spleen and CNS samples obtained.
Additionally, CD4+ CD25hi cells (generally consisting of TReg) were reduced, although the frequency was not altered (FIGS. 9A and 9B).
Restimulation with PMA/lonomycin was used to help detect the cytokine production.

[5] = tested on: ethidium bromide demyelination of caudal cerebellar peduncles in one year old rats; assay: Focal toxin (ethidium bromide) induced rat model of demyelination; type: in vivo; conditions: IRX4204 10 mg/kg/day oral
Procedure: The experiment uses rats of relatively advanced age (1 year) since such rats undergo remyelination in a less efficient manner, thereby providing data that are more relevant to the clinical treatment of human patients with multiple sclerosis or other demyelination disorders.
Focal demyelination is induced in one year old rats (approximately 300 g in weight) by injecting stereotactically 5 μl of ethidium bromide solution (0.01% vol/vol in saline) in a bilateral manner into the caudal cerebellar peduncles (CCP). […] The rats are killed on day 24 post-ethidium bromide treatment for analysis of remyelination by quantitative polymerase chain reaction (qPCR) and microscopy.

EAE in C57BL/6 (B6) mice = assay: CNS infiltrating cells in EAE mice (FACS, day 20); type: in vivo, mouse; conditions: day 20 after immunization, vs vehicle control
Procedure: To determine whether a RXR agonist can reduce central nervous system (CNS) infiltrating cells, C57BL/6 (B6) mice were treated as described in Example 6. On day 20 after immunization, mice were sacrificed and perfused with phosphate buffered saline (PBS). Brain and spinal cord tissue was isolated, digested with DNase and Liberase DL (Roche Diagnostics, Indianapolis, Ind.) for 30 minutes, and homogenized through 70 micron nylon mesh filters. Resulting cells were placed over a Percoll gradient to remove myelin. The remaining cells (microglia and CNS infiltrating cells) were counted, stained for molecules of interest, and run on a flow cytometer. Based on the frequencies obtained by FACS of these cell populations, total cell numbers of CNS infiltrating leukocytes expressing CD45, including CD4^+ T cells and CD11c^+ CD11b^+ myeloid dendritic cells (DC), were calculated.

[6] = tested on: Naive CD4+ CD25− FoxP3− cells; assay: Treg cell differentiation with RXR agonist in the presence of pan-RAR antagonist; type: cell-based, mouse; conditions: 1 nM or 10 nM 194310 with IRX4204 at 1.0 nM; Treg conditions
Procedure: Naive CD4^+ CD25^− FoxP3^− cells were purified from a Foxp3-GFP mouse using flow cytometry by sorting and isolating based upon a GFP^− phenotype. These cells were then cultured under Treg cell differentiation conditions by treating the cells with αCD3 and αCD28 polyclonal antibodies in the presence of IL-2 and TGF-β. […] The cultured cells were then assayed for the expression of Foxp3. […] However, this partial inhibition of Fox3p expression may actually be due to the blocking of the effects of endogenous RA in the culture medium.

Compound	activation of LXRβ/RXR heterodimer (LXRβ/RXR)	activation of LXRα/RXR heterodimer (LXRα/RXR)	activation of FXR/RXR heterodimer (FXR/RXR)	OPC differentiation into oligodendrocytes (EGFP positive cells) [1]	Efficacy (% of 1 μM IRX4204) RXRγ (RXRγ)	RARα activity detected (RARα)	Foxp3 expression (Treg cells) [2]	IL-17A expression (Th17 cells) [2]	health concerns during the treatment phase ([3]; 6 weeks)	number of SMI32 positive axonal ovoids in corpus callosum ([3]; compared to Vehicle, 6 weeks concurrent with CR)	Iba1 staining (microglial/macrophage activation) in corpus callosum ([3]; compared to vehicle)	size of myelinated axons in the corpus callosum [4]	CD4+ CD25hi cells frequency, spleen (EAE in B6 mice)	co-expression of IFNγ and IL-17A by CD4 T cells in CNS (EAE in B6 mice)	densities of Olig2+ oligodendrocyte lineage cells and CC1+ differentiated oligodendrocytes in lesions ([5]; day 7 to 21, ± 20 ng/g s.c. thyroxine)	Mbp and Pdgfra expression (real-time qPCR of lesion samples) ([5]; ± 20 ng/g s.c. thyroxine)	infiltration of CD4+ cells into CNS (EAE in C57BL/6 (B6) mice)	infiltration of CD11c+ CD11b+ cells (myeloid DC) into CNS (EAE in C57BL/6 (B6) mice)	effect on induction of Foxp3 expression by RXR agonist [6]
CC(/C=C/[C@@H]1C[C@]1(C)c1ccc2c(c1)C(C)(C)CCC2(C)C)=C\C(=O)O [IRX4204, 3,7-dimethyl-6(S),7(S)-methano,7-[1,1,4,4-tetramethyl-1,2,3,4-tetrahydronaphth-7-yl]2(E),4(E) heptadienoic acid]	not to transactivate; also recorded: does not activate	not to transactivate; also recorded: does not activate	not to transactivate; also recorded: does not activate	significant increase; also recorded: dose dependent increase	0.09 ± 0.01 100 % of 1 μM IRX4204	minimal activity	increased	decreased	no observed health concerns	not statistically different from the Vehicle	no difference	significant increase	not altered	not significantly different between groups	increased	increase	significant reduction	significant reduction	
CCc1ccc(C2=CC(C)(C)Sc3ccc(C#Cc4ccc(C(=O)O)cc4)cc32)cc1 [Compound 194310]																			only partially blocked
